Patent US5872104A, “Combinations and methods for reducing antimicrobial resistance” (Oridigm Corporation, priority 1994, dated 1999)
In brackets after ≈: the same amount, converted by molar mass. Structures can show the parent of a compound that is named as a salt. Where two headings read alike, the source gives them in different places.

Experiments:
Mycoplasma pneumoniae [1] = conditions: in µg/mL; cited from earlier work
Streptococcus pneumoniae = conditions: in µg/mL; cited from earlier work
[2] = tested on: Gram-positive cocci (peptococcus, peptostreptococcus); conditions: anaerobes; cited from earlier work
[3] = tested on: E. faecalis (Erythromycin resistant); conditions: cited from earlier work
Pasteurella multocida = conditions: cited from earlier work
Moraxella catarrhalis = conditions: in µg/mL; cited from earlier work
Campylobacter species = conditions: in µg/mL; cited from earlier work
Neisseria gonorrhoeae = conditions: in µg/mL; cited from earlier work
Streptococcus bovis = conditions: cited from earlier work
[4] = tested on: E. faecalis (Erythromycin susceptible); conditions: cited from earlier work
Listeria monocytogenes = conditions: in µg/mL; cited from earlier work
[5] = tested on: Staphylococcus aureus, methicillin resistant; conditions: cited from earlier work
Haemophilus influenzae = conditions: in µg/mL; cited from earlier work
[6] = tested on: Coagulase-negative staphylococci, methicillin resistant; conditions: cited from earlier work
Bacteroides fragilis = conditions: anaerobes; in µg/mL; cited from earlier work
Bordetella pertussis = conditions: in µg/mL; cited from earlier work
[7] = cited from earlier work
N. meningitidis = conditions: in µg/mL; cited from earlier work
Clostridium perfringens = conditions: anaerobes; in µg/mL; cited from earlier work
[8] = tested on: Streptococcus pyogenes (group A), erythromycin susceptible; conditions: cited from earlier work
[9] = tested on: Staphylococcus aureus, methicillin susceptible; conditions: in µg/mL; cited from earlier work
Legionella pneumophila = conditions: in µg/mL; cited from earlier work
Chlamydia trachomatis = conditions: in µg/mL; cited from earlier work
Viridans streptococci = conditions: cited from earlier work
SAH in hepatocytes = conditions: cited from earlier work
[10] = tested on: S-Adenosylmethionine Decarboxylase (SAM-DC); conditions: cited from earlier work
[11] = tested on: mature rRNA in Novikoff hepatoma cells; conditions: cited from earlier work
SAM synthetase = conditions: cited from earlier work
[12] = tested on: E. coli glutathione synthetase; conditions: cited from earlier work
[13] = tested on: tRNA methylases isolated from E. coli; conditions: cited from earlier work
tRNA methylases = conditions: cited from earlier work
arginine decarboxylase = conditions: cited from earlier work
[14] = target: ornithine decarboxylase (ODC); conditions: cited from earlier work
[15] = tested on: S. aureus 27660 (erythromycin resistant); assay: Erythromycin disc susceptibility after pre-incubation with inhibitor discs (second procedure); conditions: 310 μg/disc, pre-incubation 0-5 hours, 18 hours incubation (FIG. 4)
[16] = tested on: S. aureus 27660 (erythromycin resistant); format: cell-based; conditions: inhibitor pre-mixed with BHIA or TSA, with erythromycin (FIG. 3)
[17] = tested on: S. aureus 6538 (erythromycin susceptible); assay: Erythromycin disk susceptibility with inhibitor pre-mixed in agar; format: cell-based; conditions: inhibitor pre-mixed with BHIA or TSA, with erythromycin (FIG. 2)
[18] = tested on: methylation reactions in peripheral blood monocytes; conditions: cited from earlier work
bovine liver SAHH = conditions: 0.2 mM; cited from earlier work
Dictyostelium discoideum = conditions: 5 mM, four hours; cited from earlier work
glutathione = conditions: ip.; 4.5 mmol/kg buthionine sulfoximine and […] diethyl maleate; cited from earlier work
Trypanosomiasis = conditions: cited from earlier work
rRNA of S. cerevisiae = conditions: cited from earlier work
Mycoplasma pneumoniae [19] = conditions: cited from earlier work
Ureaplasma urealyticum = conditions: cited from earlier work
Staphylococcus aureus = conditions: cited from earlier work
Mycoplasma hominis = conditions: cited from earlier work
RNA methylation = conditions: cited from earlier work
[20] = tested on: 28S rRNA, 18S rRNA and tRNA; conditions: NPA 10 μM; c^3 -NPA 10 μM; c^3 -Ari 100 μM; cited from earlier work
SAHH hydrolase = conditions: cited from earlier work
adenosine deaminase = conditions: cited from earlier work
lysosomal ADA = conditions: 0.2 mM; cited from earlier work

## CC[C@H]1OC(=O)[C@H](C)[C@@H](O[C@H]2C[C@@](C)(OC)[C@@H](O)[C@H](C)O2)[C@H](C)[C@@H](O[C@@H]2O[C@H](C)C[C@H](N(C)C)[C@H]2O)[C@](C)(O)C[C@@H](C)CN(C)[C@H](C)[C@@H](O)[C@]1(C)O [Azithromycin]
Mycoplasma pneumoniae [1]
  MIC90: 0.001
Streptococcus pneumoniae
  MIC90: 0.12
[2]
  MIC90: 2 µg/mL (≈ 2.67 µM)
[3]
  MIC90: > 64 µg/mL
Pasteurella multocida
  MIC90: 0.5 µg/mL (≈ 0.668 µM)
Moraxella catarrhalis
  MIC90: 0.5
Campylobacter species
  MIC90: 0.25
Neisseria gonorrhoeae
  MIC90: 0.15
Streptococcus bovis
  MIC90: 0.25 µg/mL (≈ 0.334 µM)
[4]
  MIC90: 8 µg/mL (≈ 10.7 µM)
Listeria monocytogenes
  MIC90: 4.0
[5]
  MIC90: > 128 µg/mL
Haemophilus influenzae
  MIC90: 1.0
[6]
  MIC90: > 128 µg/mL
Bacteroides fragilis
  MIC90: 8.0
Bordetella pertussis
  MIC90: 0.12
[7]
  tissue half-life: prolonged tissue half-life
N. meningitidis
  MIC90: 0.12
Clostridium perfringens
  MIC90: 1.0
[8]
  MIC90: 0.12 µg/mL (≈ 0.16 µM)
[9]
  MIC90: 1.0
Legionella pneumophila
  MIC90: 0.25-2.0
Chlamydia trachomatis
  MIC90: 0.12-0.25
Viridans streptococci
  MIC90: 16 µg/mL (≈ 21.4 µM)

## Nc1ncnc2c1ncn2C[C@@H](O)[C@@H](O)C(=O)O [D-eritadine]
SAH in hepatocytes
  inactivation of SAH: inactivate SAH in hepatocytes

## CN(CCCNN)C[C@H]1O[C@@H](n2cnc3c(N)ncnc32)[C@H](O)[C@@H]1O [MHZPA, 5'-deoxy-5'-[(3-hydrazinopropyl)methylamino]adenosine]
[10]
  SAM-DC inhibition: powerful irreversible inhibitors of SAM-DC

## Nc1nc2c(ncn2[C@@H]2O[C@H](CO)[C@@H](O)[C@H]2O)c(=S)[nH]1 [6-thioguanosine]
[11]
  formation of mature rRNA: inhibit the formation of mature 28S and 18

## Nc1ncnc2c1ncn2[C@@H]1O[C@H](COP(=O)(O)NP(=O)(O)OP(=O)(O)O)[C@@H](O)[C@H]1O [AMPNPP]
SAM synthetase
  effectiveness, fold versus AMPCPP: about 1000 fold
  inhibition constant, fold less than the Km of ATP: 60 fold
  substrate and inhibitor of SAM synthetase: both a substrate for SAM synthetase and a potent inhibitor

## COc1cc(Cc2cnc(N)nc2N)cc(OC)c1OC [trimethoprim]
[12]
  inhibition: potently inhibited

## Nc1ncnc2nc[nH]c12 [adenine]
[13]
  inhibition of E. coli tRNA methylases: inhibitory to tRNA methylases isolated from E. coli
tRNA methylases
  inhibition of tRNA methylases: gave inhibition that would be acceptable

## N=C(N)NCCCC(N)(C(=O)O)C(F)F (racemic) [DFMA, difluoromethylarginine]
Arginine decarboxylase
  arginine decarboxylase inhibition: irreversible inhibitor of ADC
Arginine decarboxylase; listed as DL-α-(difluoromethyl)arginine
  arginine decarboxylase inhibition: potent and irreversible inhibitor of bacterial ADC

## COC(=O)C(N)(C=CCN)CF (racemic) [DL-α-monofluoromethyldehydroornithine methylester]
[14]
  Ki: 3000 nM

## Nc1ncnc2c1ncn2C[C@H](O)[C@H](O)C(=O)O [L-eritadenine]
SAH in hepatocytes
  inactivation of SAH: inactivate SAH in hepatocytes

## CCSCC[C@H](N)C(=O)O [Ethionine]
[15]
  increase in clear zones relative to erythromycin alone: Increases in clear zones were observed
[16]
  increase in the size of the clear zone: increase in the size of the clear zone
[17]
  increase in the size of the clear zone: increase in the size of the clear zone

## CN(Cc1cnc2nc(N)nc(N)c2n1)c1ccc(C(=O)N[C@@H](CCC(=O)O)C(=O)O)cc1 [Methotrexate]
[12]
  inhibition: potently inhibited
[18]; cultured cells and patients
  SAH metabolism: affects SAH metabolism
[18]; low concentrations, in vitro
  methylation reactions: interfere with specific methylation reactions

## CNc1ncnc2c1ncn2[C@@H]1C[C@H](CO)[C@@H](O)[C@H]1O [N^6 -methylaristeromycin]
Bovine liver SAHH
  inhibition: 22%

## C[C@](N)(CCCN)C(=O)O [α-methylornithine]
Dictyostelium discoideum
  growth of D. discoideum: arrested in four hours

## CCOC(=O)/C=C\C(=O)OCC [diethyl maleate]
glutathione
  depletion of glutathione: depleted liver and aortic glutathione

## Nc1ncnc2c1ncn2C[C@H](O)[C@@H](O)C(=O)O [L-threo-eritadenine]
SAH in hepatocytes
  inactivation of SAH: inactivate SAH in hepatocytes

## Nc1ncnc2c1nnn2[C@@H]1C[C@H](CO)[C@@H](O)[C@H]1O [8-azaaristeromycin]
Bovine liver SAHH
  inhibition: 46%

## NCCCC(N)(C(=O)O)C(F)F (stereo not drawn) [DFMO, difluoromethylornithine]
[14]
  ODC inhibition: irreversible inhibitor of ornithine decarboxylase
Trypanosomiasis; different dosage levels and modes of treatment
  clinical effectiveness: effective against Trypanosomiasis
Trypanosomiasis; human, in vivo
  safety: safe and well tolerated and the side effects are reversible

## Nc1ncnc2c1ncn2[C@@H]1O[C@H](CO)[C@@H](O)[C@H]1O [adenosine]
[13]
  inhibition of E. coli tRNA methylases: inhibitory to tRNA methylases isolated from E. coli

## N#Cc1cn([C@@H]2O[C@H](CO)[C@@H](O)[C@H]2O)c2ncnc(N)c12 [toyocamycin]
[11]
  formation of mature rRNA: inhibit the formation of mature 28S and 18
rRNA of S. cerevisiae
  maturation of rRNA: inhibit the maturation of rRNA

## NCC(O)CN [1,3-diaminopropan-2-ol]
Dictyostelium discoideum
  growth of D. discoideum: arrested in four hours

## CCC[C@@H]1C[C@@H](C(=O)N[C@@H]([C@H]2O[C@H](SC)[C@H](O)[C@@H](O)[C@H]2O)[C@@H](C)O)N(C)C1 [Lincomycin]
Mycoplasma pneumoniae [19]
  MIC50: 8 µg/mL (≈ 19.7 µM)
  MIC90: 32 µg/mL (≈ 78.7 µM)
  Range: 2-32
Ureaplasma urealyticum
  MIC50: ≥ 128 µg/mL
  MIC90: ≥ 128 µg/mL
Staphylococcus aureus
  MIC50: 1 µg/mL (≈ 2.46 µM)
  MIC90: 1 µg/mL (≈ 2.46 µM)
  Range: 0.5-512
Mycoplasma hominis
  MIC50: 2 µg/mL (≈ 4.92 µM)
  MIC90: 4 µg/mL (≈ 9.84 µM)
  Range: 0.5-16

## CN(C/C=C\CN)C[C@H]1O[C@@H](n2cnc3c(N)ncnc32)[C@H](O)[C@@H]1O [AbeAdo, 5'-{[(Z)-4-amino-2-butenyl]methylamino}-5'-deoxyadenosine]
[10]
  SAM-DC inhibition: powerful irreversible inhibitors of SAM-DC

## Nc1ncnc2c1ncn2[C@@H]1O[C@H](CO)[C@H](O)[C@H]1O [xylosyladenine, 9-B-D-xylofuranosyladenine]
RNA methylation
  DNA methylation: not inhibited
  formation of methyluridine, 2'-O-methylcytidine, 5-methyluridine and 5-methylcytidine in RNA: reduced
  inhibition of RNA methylation: marked inhibition of RNA methylation

## Nc1nccc2c1ncn2[C@@H]1C[C@H](CO)[C@@H](O)[C@H]1O [c^3 -Ari, 3-deazaaristeromycin]
[20]
  methylation of 28S rRNA, 18S rRNA and tRNA: inhibit the methylation of 28S rRNA, 18S rRNA and tRNA
Bovine liver SAHH
  inhibition: 97%
SAHH hydrolase
  antiviral activity and cytotoxicity vs first generation: retained antiviral activity and considerably lower cytotoxicity than their parent first generation inhibitors

## CCCCCC[C@H]([C@H](C)O)n1cnc2c(N)ncnc21 (relative stereo) [erythro-9-(2-hydroxy-3-nonyl)adenine]
Adenosine deaminase
  ADA inhibition: inhibitors of ADA
Lysosomal ADA
  inhibition of lysosomal ADA: > 97%
